Measured values published in patent publication US6692927B2, “Bax degradation involvement in tumor survival and progression” (University of South Florida, priority 2000, dated 2004).
Where a SMILES comes first, the peptide text is derived from it. [ ]: non-standard residue; d: D form. The star is where a group is joined. Nva = CCC[C@H](N)C(=O)O; Cbz = O=C(OCc1ccccc1)*

Tests used:
Jurkat T cells = test: Western blot and Bax IP/ubiquitin blot in Jurkat T cells; format: cell-based, human
Experimental: FIGS. 8A-8D show proteasome inhibition accumulates Bax to mitochondria/cytoplasm and increases interaction between Bax and Bcl-2 proteins. Jurkat cells (0 h; FIG. 8A and FIG. 8B) or Jurkat cells overexpressing Bcl-2 (0 h; FIG. 8C and FIG. 8D) were treated by either 10 μM lactacystin (FIGS. 8A-8C), 50 μM LLnV (FIG. 8D), or 50 μM LLM (FIG. 8A and FIG. 8B) for the indicated hours. (FIG. 8A and FIG. 8B) Western blotting with antibodies to PARP and Bax were performed as described in FIG. 7. (FIG. 8C) Immunohistochemistry (see MATERIALS AND METHODS). Localization of Bax protein (green) and nuclei (red) are shown. (FIG. 8D) Bax immunoprecipitates, prepared by an agarose-conjugated N-20 Bax antibody, were immunoblotted first with the 6A7 Bax antibody (upper) and then reblotted with a Bcl-2 antibody (lower).
FIGS. 9A-9F show Bax degradation depends on ubiquitination, proteasome and ATP. (FIG. 9A) Jurkat cells (0 h) were treated with either 50 μM LLnV or 10 μM lactacystin, followed by preparation of Bax immunoprecipitates (with clone 6A7), which were immunoblotted with an ubiquitin antibody. Positions of putative ubiquitinated Bax proteins (p47, p55) are indicated at left. The nature of the ˜30 kDa and ˜84 kDa remains unclear. (FIG. 9B) The [^35S]-labeled Bax (upper) or Bcl-2 (lower) protein (1 μl) were incubated at 37° C. for 2 h with either buffer Z only (lane 1) or […] protein extract of MCF-7 cells grown exponentially (lane 2) or pretreated for 8 h with […] LLnV (lane 3). (FIG. 9C) The [^35S]-labeled Bax protein (1 μl) was incubated with either buffer Z only (lane 1) or 100 μg MCF-7 cell lysate at 37° C. for 4 h, in the presence of an indicated inhibitor (100 mM; lanes 3-8) or an equal volume of DMSO (lane 2) in buffer Z. A weak band of ˜16 kDa (indicated by an arrow) is probably an intermediate product of proteasome-mediated Bax degradation. (FIG. 9D) The proteasome in MCF-7 whole cell lysate (W lys, lane 1) was precipitated by using either ultraspin (ULS) or a proteasome subunit a6 antibody (IP). Both supernatant (lanes 2, 4) and pellet (lanes 3, 5) fractions were examined by Western blot assay using antibody to the proteasome a6 subunit (MW 33 kDa). (FIG. 9E) Bax degradation assay was performed as in FIG. 9B, with addition of buffer Z (lane 1) or 100 μg protein from MCF-7 whole cell lysate (lane 2), ultraspun supernatant (lane 3) or plus the pellet (lane 4), immunodepleted supernatant (lane 5) or plus a purified 20S proteasome ([…]; lane 6), or the purified proteasome alone (2 μg; lane 7). (FIG. 9F) Bax degradation assay was performed as in FIG. 9B, in the absence (lane 3) or presence of 10 mM ATP (lane 2) or 10 mM ATP-y-S (lane 4). […]

[1] = tested on: normal human breast cells MCF-10A; test: cellular detachment of normal breast cells; format: cell-based; settings: 48 hours or even 72 hours
Experimental: Proteasome inhibitors selectively induce apoptosis in human breast cancer, but not normal, cells. […] Cells of both human breast cancer lines became detached in a lactacystin-concentration-dependent manner (FIG. 3). No detachment was induced in the normal human breast cells MCF-10A after treatment with lactacystin for 48 hours (FIG. 3) or even 72 hours. Proteasome inhibition-induced detachment of breast cancer cells is due to apoptosis (An et al., in press).

Structure (SMILES) | p55 and p47 levels (putative ubiquitinated Bax) (Jurkat T cells; 50 μM LLnV, 8 hours) | cellular detachment [1] | p55 and p47 levels (putative ubiquitinated Bax) (Jurkat T cells; 10 μM lactacystin, 4 hours) | Bax accumulation and PARP cleavage (Jurkat T cells; 10 microM)
CCC[C@@H](C=O)NC(=O)[C@H](CC(C)C)NC(=O)[C@H](CC(C)C)NC(=O)OCc1ccccc1 [LLnV] (Cbz-Leu-Leu-[Nva]-aldehyde) | significantly increased | – | – | –
CC(=O)N[C@@H](CSC(=O)[C@]1([C@@H](O)C(C)C)NC(=O)[C@H](C)[C@@H]1O)C(=O)O [lactacystin] | – | No detachment | significantly increased | induced Bax accumulation and PARP cleavage
